Laboratory results as given in ChEMBL document CHEMBL5579852, “Promising anti-proliferative indolic benzenesulfonamides alter mechanisms with sulfonamide nitrogen substituents” (Eur J Med Chem, 2024).
The source made the active and inactive calls. The calls are words filed in the database; no cut-off is given here.

Assays:
MES-SA [1] = assay: Antiproliferative activity against human MES-SA cells assessed as reduction in cell viability incubated for 72 hrs by CelltiterGlo luminescent assay
[2] = Antiproliferative activity against human WM1366 cells assessed as reduction in cell viability incubated for 72 hrs by CelltiterGlo luminescent assay; settings: WM1366, 72 h
A-375 = assay: Antiproliferative activity against human A-375 cells assessed as reduction in cell viability incubated for 72 hrs by CelltiterGlo luminescent assay; settings: A-375, 72 h
MES-SA [3] = assay: Cell cycle distribution in human MES-SA cells assessed as accumulation of cells in G1 phase cells at 100 nM incubated for 24 hrs by Hoechst 33258 staining based flow cytometry (reference value: 60%); type: functional
HT-1080 = assay: Antiproliferative activity against human HT-1080 cells assessed as reduction in cell viability incubated for 72 hrs by CelltiterGlo luminescent assay; settings: HT-1080, 72 h
[4] = Antiproliferative activity against human RPE-1 cells assessed as reduction in cell viability incubated for 72 hrs by CelltiterGlo luminescent assay; type: toxicity, cell-based; settings: RPE-1 cells (TERT-RPE1)
MDA-MB-468 = assay: cells; settings: Homo sapiens, MDA-MB-468, 72 h
Description: Antiproliferative activity against human MDA-MB-468 cells assessed as reduction in cell viability incubated for 72 hrs by CelltiterGlo luminescent assay

MES-SA [5] = assay: Induction of apoptosis in human MES-SA cells assessed as live cells at 100 nM incubated for 24 hrs by live/dead orange and TUNEL staining based flow cytometry analysis relative to control; type: functional
HeLa [6] = assay: Antiproliferative activity against human HeLa cells assessed as reduction in cell viability incubated for 72 hrs by CelltiterGlo luminescent assay; type: functional, cell-based
Tubulin (Homo sapiens) = Tubulin (Homo sapiens) (UniProt P68371+Q9H4B7+P0DPH7+P68366+Q13509+Q71U36+P04350+Q3ZCM7+P07437+P68363+Q9BQE3+Q6PEY2+Q13885+Q9BVA1+Q9BUF5); assay: Inhibition of tubulin polymerization in human MES-SA cells assessed as appearance of spherical shaped cells at 10 nM incubated for 24 hrs by DAPI staining based confocal microscopy analysis; type: cell-based
MES-SA [7] = assay: Cell cycle distribution in human MES-SA cells assessed as accumulation of cells in S phase cells at 100 nM incubated for 24 hrs by Hoechst 33258 staining based flow cytometry (reference value: 27 %); type: functional
cells = settings: Homo sapiens, MDA-MB-468, 72 h
HeLa [8] = assay: Antiproliferative activity against human HeLa cells assessed as inhibition of cell growth incubated for 72 hrs in absence of verapamil by MTT assay; type: functional, cell-based
MCF7 = assay: Antiproliferative activity against human MCF7 cells assessed as reduction in cell viability incubated for 72 hrs by CelltiterGlo luminescent assay; type: functional, cell-based; settings: MCF7, 72 h
MES-SA [9] = assay: Cell cycle distribution in human MES-SA cells assessed as accumulation of cells in G2 phase cells at 100 nM incubated for 24 hrs by Hoechst 33258 staining based flow cytometry (reference value: 12 %); type: functional
MES-SA [10] = assay: Cell cycle distribution in human MES-SA cells assessed as accumulation of cells in G2/M phase cells at 100 nM incubated for 24 hrs by Hoechst 33258 staining based flow cytometry (reference value: 13.3 %); type: functional
MES-SA [11] = assay: Induction of apoptosis in human MES-SA cells assessed as increase in caspase 3/7 activation at 100 nM by live-cell imaging based fluorescence assay; type: functional; settings: time 3.0 day, TDE = time-dependent effect
HeLa [12] = assay: Antiproliferative activity against human HeLa cells assessed as reduction in cell viability incubated for 72 hrs by MTT assay; type: functional, cell-based
[13] = Antiproliferative activity against human Hermes 3C cells assessed as reduction in cell viability incubated for 72 hrs by CelltiterGlo luminescent assay; type: toxicity, cell-based
MES-SA [14] = assay: Induction of apoptosis in human MES-SA cells assessed as apoptotic cells at 100 nM incubated for 24 hrs by live/dead orange and TUNEL staining based flow cytometry analysis relative to control; type: functional
BT-474 = assay: Antiproliferative activity against human BT-474 cells assessed as reduction in cell viability incubated for 72 hrs by CelltiterGlo luminescent assay; settings: BT-474, 72 h
MES-SA [15] = assay: Induction of apoptosis in human MES-SA cells assessed as late apoptotic cells at 100 nM incubated for 24 hrs by live/dead orange and TUNEL staining based flow cytometry analysis relative to control; type: functional
[16] = Antiproliferative activity against human HEK293 cells assessed as reduction in cell viability incubated for 72 hrs by CelltiterGlo luminescent assay; type: toxicity, cell-based
HeLa [17] = assay: Antiproliferative activity against human HeLa cells assessed as inhibition of cell growth incubated for 72 hrs in presence of verapamil by MTT assay; type: functional, cell-based
MES-SA [18] = assay: Induction of apoptosis in human MES-SA cells assessed as necrotic cells at 100 nM incubated for 24 hrs by live/dead orange and TUNEL staining based flow cytometry analysis relative to control; type: functional
MES-SA [19] = assay: Cell cycle distribution in human MES-SA cells assessed as accumulation of cells in M phase cells at 100 nM incubated for 24 hrs by Hoechst 33258 staining based flow cytometry (reference value: 1.3 %); type: functional
[20] = Antiproliferative activity against human Melmet 5 cells assessed as reduction in cell viability incubated for 72 hrs by CelltiterGlo luminescent assay; settings: Melmet 5, 72 h
CAKI-1 = assay: Antiproliferative activity against human CAKI-1 cells assessed as reduction in cell viability incubated for 72 hrs by CelltiterGlo luminescent assay; settings: CAKI-1, 72 h
MES-SA [21] = assay: Induction of apoptosis in human MES-SA cells assessed as dead cells at 100 nM incubated for 24 hrs by live/dead orange and TUNEL staining based flow cytometry analysis relative to control; type: functional

Compound	IC50 (MES-SA [1]) [nM]	IC50 [2] [nM]	IC50 (A-375) [nM]	Activity (MES-SA [3]) [%]	IC50 (HT-1080) [nM]	IC50 at 72 h [4] [nM]	IC50 (MDA-MB-468) [nM]	Activity (MES-SA [5]) [%]	IC50 (HeLa [6]) [nM]	inhibition (Tubulin (Homo sapiens))	Activity (MES-SA [7]) [%]	IC50 (cells) [nM]	IC50 (HeLa [8]) [nM]	IC50 (MCF7) [nM]	Activity (MES-SA [9]) [%]	Activity (MES-SA [10]) [%]	Activity (MES-SA [11])	IC50 (HeLa [12]) [nM]	IC50 at 72 h [13] [nM]	Activity (MES-SA [14]) [%]	further results
COc1cc(S(=O)(=O)Nc2ccc3c(ccn3C)c2)cc(OC)c1OC	5.6	7.1	6.4	4	5.6	5.7	4.5	90.3	3.9	inactive	6	29.6	22.9	1.4	29	83.6	Tde	5.3	61	4.2	IC50 (BT-474): 46.1 nM; Activity (MES-SA [15]): 0.8%; IC50 at 72 h [16]: 4.9 nM; IC50 (HeLa [17]): 17.9 nM; Activity (MES-SA [18]): 4.7%; Activity (MES-SA [19]): 56.8%; IC50 [20]: 1.4 nM; IC50 (CAKI-1): 4 nM
COc1cc(S(=O)(=O)N(C)c2ccc3c(ccn3C)c2)cc(OC)c1OC	9	13.5	17.5	4	11.8	20	24.4	90	14.5	Active	6	67.6	50.1	15.8	10	83.6	Tde	3.2	67.4	5.7	IC50 (BT-474): 34.5 nM; Activity (MES-SA [15]): 0.9%; IC50 at 72 h [16]: 12.3 nM; IC50 (HeLa [17]): 40.9 nM; Activity (MES-SA [18]): 3.4%; Activity (MES-SA [19]): 75.3%; IC50 [20]: 12.9 nM; IC50 (CAKI-1): 11 nM
COc1cc(S(=O)(=O)Nc2ccc3c(c2)c(C#N)cn3C)cc(OC)c1OC	11.8	65.7	33.2	4	12.1	52.8	11.8	88	13.3	inactive	6	12.4	43	12.1	22	83.6	Tde	43	87.1	5.8	IC50 (BT-474): 57.5 nM; Activity (MES-SA [15]): 1.8%; IC50 at 72 h [16]: 18.2 nM; IC50 (HeLa [17]): 29.1 nM; Activity (MES-SA [18]): 4.5%; Activity (MES-SA [19]): 67.7%; IC50 [20]: 1.6 nM; Activity (MES-SA [21]): 12%; IC50 (CAKI-1): 32.4 nM
COc1cc(S(=O)(=O)N(CC#N)c2ccc3c(ccn3C)c2)cc(OC)c1OC	8.9	52.8	22.1	4	9.9	80.4	13	92	11	inactive	6	14.8	22.3	13.7	35	83.6	Tde	1.7	44.7	3.1	IC50 (BT-474): 68.3 nM; Activity (MES-SA [15]): 0.5%; IC50 at 72 h [16]: 23.4 nM; IC50 (HeLa [17]): 16.3 nM; Activity (MES-SA [18]): 4.5%; Activity (MES-SA [19]): 48.6%; IC50 [20]: 8.9 nM; Activity (MES-SA [21]): 8%; IC50 (CAKI-1): 56.2 nM
